Data reported in US9034918B2, “Composition including at least one trans-cinnamaldehyde and the use thereof in the treatment of bacterial infections, specifically in the treatment of nosocomial infections” (SEPTEOS, priority 2009, dated 2015).

Columns and labels:
Assay in all cases: Antibiogram by diffusion technique (CA-SFM 2008)
Assay type in all cases: cell-based
[1] = test system: E. coli strain 8157; design: D: unit not given here
Text: (§1) Three clinical categories were selected for interpretation of the in vitro sensitivity tests: sensitive (S), resistant (R) and intermediate (I). • The strains categorized S are those for which the probability of therapeutic success is high in the case of treatment by systemic route with the dosing schedule recommended in the summary of product characteristics (SPC) prepared by the French Health Products Safety Agency (AFSSAPS). • The strains categorized R are those for which there is a high probability of therapeutic failure regardless of treatment type and antibiotic dose. • The strains categorized I are those for which therapeutic success cannot be predicted. These strains form a heterogeneous group for which the results obtained in vitro are not predictive of therapeutic success. […] The intermediate category is also a buffer zone which takes into account technical and biological uncertainties.
(§2) The sensitivity of strains to antibiotics was determined by a diffusion technique according to the 2008 recommendations by the Antibiogram Committee of the French Microbiology Society (CA-SFM).
(§3) In terms of critical concentrations and diameters, strains are categorized as follows: • sensitive (S): strains for which the MIC of the antibiotic tested is less than or equal to the lower critical concentration c, which is equivalent to a diameter greater than or equal to the critical diameter D; • resistant (R): strains for which the MIC of the antibiotic tested are greater than the upper critical concentration C, corresponding to a diameter less than the critical diameter d; • intermediate sensitivity (I): strains for which the MIC of the antibiotic tested and the corresponding diameter are between the two critical concentrations and the two critical diameters.
(§4) The tests were carried out on Mueller-Hinton agar. An inoculum adjusted to 0.5 on the McFarland scale is then diluted to 1/100. Petri dishes are inoculated by swabbing. The dishes are read after 24 hours of incubation at 37° C.
(§5) The raw results are then interpreted according to the interpretative reading rules of the CA-SFM.

[2] = test system: E. coli strain 8155; design: D: unit not given here
Text: as §1, §2, §3, §4, §5

[3] = test system: golden staph (S. aureus) strain 8147; design: D: unit not given here
Text: as §1, §2, §3, §4, §5

[4] = test system: golden staph (S. aureus) strain 8239; design: D: unit not given here
Text: as §1, §2, §3, §4, §5

[5] = test system: E. coli strain 8156; design: D: unit not given here
Text: as §1, §2, §3, §4, §5

[6] = test system: Pseudomonas aeruginosa strain 8134; design: D: unit not given here
Text: as §1, §2, §3, §4, §5

[7] = test system: golden staph (S. aureus) strain 8240; design: D: unit not given here
Text: as §1, §2, §3, §4, §5

[8] = test system: Pseudomonas aeruginosa strain 8129; design: D: unit not given here
Text: as §1, §2, §3, §4, §5

[9] = test system: E. coli strain 8154; design: D: unit not given here
Text: as §1, §2, §3, §4, §5

[10] = test system: Pseudomonas aeruginosa strain 8128; design: D: unit not given here
Text: as §1, §2, §3, §4, §5

[11] = test system: Pseudomonas aeruginosa strain 8132; design: D: unit not given here
Text: as §1, §2, §3, §4, §5

[12] = test system: Enterococcus strain 8152; design: Diameter: unit not given here
Text: as §1, §2, §3, §4, §5

[13] = test system: Enterococcus strain 8153; design: Diameter: unit not given here
Text: as §1, §2, §3, §4, §5

[14] = test system: E. coli strain 9003
Text: as §1, §2, §3, §4, §5

[15] = test system: strain 9007, Pseudomonas aeruginosa, with VIM-2 carbapenemase
Text: as §1, §2, §3, §4, §5

[16] = test system: Enterobacter aerogenes (9004); details: strain 9004
Text: as §1, §2, §3, §4, §5

[17] = test system: strain 9010, Acinetobacter baumannii, with VEB-1 ESBL
Text: as §1, §2, §3, §4, §5

[18] = test system: E. coli ATCC 25922; design: Diameter (D): unit not given here
Text: Three clinical categories were selected for interpretation of the in vitro sensitivity tests: sensitive (S), resistant (R) and intermediate (I). • The strains categorized S are those for which the probability of therapeutic success is high in the case of treatment by systemic route with the dosing schedule recommended in the summary of product characteristics (SPC) prepared by the French Health Products Safety Agency ([…]). • The strains categorized R are those for which there is a high probability of therapeutic failure regardless of treatment type and antibiotic dose. • The strains categorized I are those for which therapeutic success cannot be predicted. These strains form a heterogeneous group for which the results obtained in vitro are not predictive of therapeutic success. […] The intermediate category is also a buffer zone which takes into account technical and biological uncertainties. The sensitivity of strains to antibiotics was determined by a diffusion technique according to the 2008 recommendations by the Antibiogram Committee of the French Microbiology Society (CA-SFM). In terms of critical concentrations and diameters, strains are categorized as follows: • sensitive (S): strains for which the MIC of the antibiotic tested is less than or equal to the lower critical concentration c, which is equivalent to a diameter greater than or equal to the critical diameter D; • resistant (R): strains for which the MIC of the antibiotic tested are greater than the upper critical concentration C, corresponding to a diameter less than the critical diameter d; • intermediate sensitivity (I): strains for which the MIC of the antibiotic tested and the corresponding diameter are between the two critical concentrations and the two critical diameters. The tests were carried out on Mueller-Hinton agar. An inoculum adjusted to 0.5 on the McFarland scale is then diluted to 1/100. Petri dishes are inoculated by swabbing. The dishes are read after 24 hours of incubation at 37° C. The raw results are then interpreted according to the interpretative reading rules of the CA-SFM. Two examples: all strains of methicillin-resistant Staphylococcus are resistant to all beta-lactams, and the same is true for gentamicin-resistant strains; golden staph is necessarily resistant to kanamycin (and amikacin) and tobramycin. The quality of the diffusion method is controlled using E. coli strain ATCC 25922.

Molecule: CC1(C)S[C@@H]2[C@H](NC(=O)[C@H](N)c3ccc(O)cc3)C(=O)N2[C@H]1C(=O)O [Amoxicillin]
- Cat. [1]: R
- D [1]: 0
- Cat. [2]: S
- D [2]: 24
- Cat. [3]: R
- D [3]: 26
- Cat. [4]: R
- D [4]: 12
- Cat. [5]: S
- D [5]: 25
- Cat. [6]: R
- D [6]: 0
- Cat. [7]: R
- D [7]: 17
- Cat. [8]: R
- D [8]: 0
- Cat. [9]: R
- D [9]: 0
- Cat. [10]: R
- D [10]: 0
- Cat. [11]: R
- D [11]: 0
- Category [12]: S
- Diameter [12]: 32
- Category [13]: S
- Diameter [13]: 33
- Category [14]: R
- Category [15]: R
- Category [16]: R
- Category [17]: R
- Category (Cat.) [18]: S
- Diameter (D) [18]: 23

Molecule: CC(=O)OCC1=C(C(=O)O)N2C(=O)[C@@H](NC(=O)Cc3cccs3)[C@H]2SC1 [Cefalotin]
- Cat. [1]: S
- D [1]: 19
- Cat. [2]: S
- D [2]: 21
- Cat. [3]: R
- D [3]: 17
- Cat. [4]: R
- D [4]: 17
- Cat. [5]: S
- D [5]: 20
- Cat. [6]: R
- D [6]: 0
- Cat. [7]: R
- D [7]: 17
- Cat. [8]: R
- D [8]: 0
- Cat. [9]: S
- D [9]: 21
- Cat. [10]: R
- D [10]: 0
- Cat. [11]: R
- D [11]: 0
- Category [14]: R
- Category [15]: R
- Category [16]: R
- Category [17]: R
- Category (Cat.) [18]: S
- Diameter (D) [18]: 20

Molecule: CC1(C)S[C@@H]2[C@H](NC(=O)[C@H](C(=O)O)c3ccsc3)C(=O)N2[C@H]1C(=O)O [Ticarcillin]
- Cat. [1]: R
- D [1]: 0
- Cat. [2]: S
- D [2]: 31
- Cat. [5]: S
- D [5]: 28
- Cat. [6]: S
- D [6]: 23
- Cat. [8]: R
- D [8]: 13
- Cat. [9]: R
- D [9]: 0
- Cat. [10]: I
- D [10]: 21
- Cat. [11]: R
- D [11]: 12
- Category [14]: R
- Category [15]: R
- Category [16]: R
- Category [17]: R
- Category (Cat.) [18]: S
- Diameter (D) [18]: 25

Molecule: NC[C@H]1O[C@H](O[C@H]2[C@H](O)[C@@H](O[C@H]3O[C@H](CO)[C@@H](O)[C@H](N)[C@H]3O)[C@H](N)C[C@@H]2N)[C@H](N)C[C@@H]1O [Tobramycin]
- Cat. [1]: S
- D [1]: 24
- Cat. [2]: S
- D [2]: 24
- Cat. [3]: S
- D [3]: 30
- Cat. [4]: S
- D [4]: 31
- Cat. [5]: S
- D [5]: 22
- Cat. [6]: R
- D [6]: 11
- Cat. [7]: R
- D [7]: 0
- Cat. [8]: S
- D [8]: 27
- Cat. [9]: S
- D [9]: 24
- Cat. [10]: S
- D [10]: 30
- Cat. [11]: R
- D [11]: 0
- Category [12]: R
- Diameter [12]: 11
- Category [13]: R
- Diameter [13]: 14
- Category [14]: S
- Category [15]: S
- Category [16]: R
- Category [17]: R
- Category (Cat.) [18]: S
- Diameter (D) [18]: 24

Molecule: Amoxicillin + clavulanic acid
- Cat. [1]: S
- D [1]: 30
- Cat. [2]: S
- D [2]: 24
- Cat. [3]: R
- D [3]: 25
- Cat. [4]: R
- D [4]: 27
- Cat. [5]: S
- D [5]: 22
- Cat. [6]: R
- D [6]: 0
- Cat. [7]: R
- D [7]: 25
- Cat. [8]: R
- D [8]: 0
- Cat. [9]: S
- D [9]: 14
- Cat. [10]: R
- D [10]: 0
- Cat. [11]: R
- D [11]: 0
- Category [12]: S
- Diameter [12]: 30
- Category [13]: S
- Diameter [13]: 32
- Category [14]: S
- Category [15]: R
- Category [16]: R
- Category [17]: R
- Category (Cat.) [18]: S
- Diameter (D) [18]: 22
